# In patent publication US11813261B2, “HDAC inhibitors, alone or in combination with BTK inhibitors, for treating chronic lymphocytic leukemia” (ACETYLON PHARMACEUTICALS, INC., priority 2016, dated 2023):
# “Also recorded” adds a separate entry of the source.
# Tests used:
# euTCL1 (CLL model mouse) = test: Aging CLL model; assay type: in vivo
# Method: (§1) Flow cytometric analysis of peripheral blood mononuclear cells (PBMCs) was performed using fluorochrome-labeled monoclonal antibodies and the vitality dye 4′,6-diamidino-2-phenylindole. Data was acquired on an LSRII cytometer (Becton, Dickinson and Company; Franklin Lakes, NJ), and analyzed with FlowJo software (FlowJo; Ashland, Oreg). Absolute cell numbers calculated using AccuCheck Counting beads (ThermoFisher Scientific; Waltham, MA).
# (§2) All animal studies involving euTCL1 and its cross with HDAC6KO were performed following established protocols that followed approved Institutional Animal Care and Use Committee (IACUC) procedures. Two mouse models of CLL were used: an Aging CLL model, and an Accelerated CLL Model.
# Birth • euTCL1 (CLL model mouse) and • euTCL1/HDAC6KO transgenic mice
# 5-7 Months • Flow cytometry analysis • For analysis of disease
# 9 Months • Flow cytometry analysis • For analysis of disease
# 12 Months • Flow cytometry analysis • For analysis of disease • Observe for survival B) Accelerated CLL Model
# [1] = test system: C57BL/6 mice adoptively transferred with euTCL1 splenocytes; assay type: in vivo; conditions: for expression of PD-1 and LAG-3: adoptive transfer, Compound D feed, Compound A injection, 10 weeks post adoptive transfer
# Method: as §1, §2
# Day 0 • Adoptive transfer of 5×10^6 euTCL1 or euTCL1/1-IDAC6KO splenocytes
# Week 3-5 • Flow cytometry analysis • For analysis of disease
# Week 9 • Flow cytometry analysis • For analysis of disease
# Week 12 • Flow cytometry analysis • For analysis of disease • Observe for survival
# Flow cytometry analysis and gating: B-cells (malignant population CD19+/CD5+/CD45R (B220)+/IgM+/Igk+; for normal B-cells CD19+/CD5−/CD45R (B220)+/IgM+/Igk−T-regs were identified as CD3+/CD4+/CD25 hi/IL-7R low. For Co-inhibitory molecule expression CD223 (LAG3), CD279 (PD-1), CD274 (PDL-1), and CD273 (PDL-2).
# CLL = conditions: cited from earlier work
# Mec1 cells = test: IL-10 production by Mec1 cells stimulated with LPS; assay type: cell-based; conditions: Mec1 cells treated 24 hours
# [2] = clinical trials, myeloma and lymphoma; cited from earlier work
smiles,measurement,setting,value
"O=C(NO)c1cnc(NC2(c3ccccc3)CC2)nc1 [Compound D, N-hydroxy-2-((1-phenylcyclopropyl)amino)pyrimidine-5-carboxamide]",disease burden,"euTCL1 (CLL model mouse); 9 months old/25 weeks post treatment start date, vs mice treated without Compound D",significantly lower disease burden
same,expression of PD-1 and LAG-3 on T-regs,"euTCL1 (CLL model mouse); feed daily, flow cytometry, vs mice not treated",lower PD-1 and LAG-3 expression; also recorded: reduced
same,overall survival,euTCL1 (CLL model mouse); vs mice not treated,more advantageous overall survival
same,expression of PD-L1 on B cells,[1]; B cells isolated from treated mice vs non-treated animals,decrease
same,disease burden,[1]; adoptive transfer model,significantly lower disease burden
same,overall survival,[1]; adoptive transfer model,more advantageous overall survival
same,expression of PD-1 and LAG-3,[1],lower expression; also recorded: reduced
same,PD-1 and LAG3 on CD4+ T-cells,"[1]; treatment in chow, week 10 post-adoptive transfer, flow cytometry",normalization
Nc1ccccc1NC(=O)c1ccc(CNc2nccc(-c3cccnc3)n2)cc1 [MGCD0103],antileukemic activity in CLL,CLL,induced antileukemic activity
"O=C(CCCCCCNC(=O)c1cnc(N(c2ccccc2)c2ccccc2)nc1)NO [Compound A, 2-(diphenylamino)-N-(7-(hydroxyamino)-7-oxoheptyl)pyrimidine-5-carboxamide]",IL-10 production,Mec1 cells,dose-dependent decrease
same,expression of PD-1 and LAG-3,[1],lower expression; also recorded: reduced
same,tolerability,[2],well-tolerated
CCCC(CCC)C(=O)O [valproic acid],antileukemic activity in CLL,CLL,induced antileukemic activity
